Measurements taken from EP0326196A2, “Aqueous pharmaceutical preparation” (AKZO N.V., priority 1988, dated 1989).
≈ marks a conversion by molar mass, not a printed value. Where two headings read alike, the source gives them in different places.

Columns and labels:
[1] = Solubility study of the Steroid in water / aqueous cyclodextrin solutions (phase-solubility, UV/VIS); format: physicochemical
Experimental: The solubility studies were performed according to the method described below which is well known in the litrature. Excess amounts of the Steroid were added to aqueous solutions of 2,6-dimethyl-β-cyclodextrin. These suspensions were shaken at room temperature during 5 days followed by an equilibration period of 3 days at room temperature. Then an aliquot was centrifuged and the supernatant was filtered through a 0,45 µm membrane filter (Millipore: HV4, Millex). The samples were analysed with the Perkin Elmer Lambda 5 UV/VIS spectrophotometer. The absorbance was read and compared with a blanc and standard calibration curve. […] After calculation of the amount of Steroid dissolved, a phase-solubility diagram was constructed by plotting the dissolved amounts of Steroid as a function of the concentration of 2,6-dimethyl-β-cyclodextrin (see Graph).
For comparative purposes the unexpected increase of solubility of the Steroid in water using 2,6-dimethyl-β-cyclodextrin, is compared with other more common cyclodextrins.

[2] = Intra ocular pressure on application to the eyes; format: in vivo; conditions: applied to the eyes; contrary to other corticosteroids
[3] = Systemic effect after local administration; format: in vivo; conditions: administered locally

increase of the solubility (factor) [1]: 10.000
solubility ([1]; water with 2,6-dimethyl-β-cyclodextrin, in water with 2,6-dimethyl-β-cyclodextrin, room temperature, read-out: Solubility): 9000 µg/mL (≈ 24300 µM)
solubility ([1]; water with α-cyclodextrin, in water with α-cyclodextrin, room temperature, read-out: Solubility): 40 µg/mL (≈ 108 µM)
solubility ([1]; water with β-cyclodextrin, in water with β-cylodextrin, room temperature, read-out: Solubility): 50 µg/mL (≈ 135 µM)
solubility ([1]; water with τ-cyclodextrin, in water with τ-cyclodextrin, room temperature, read-out: Solubility): 70 µg/mL (≈ 189 µM)
solubility ([1]; water, 2,6-dimethyl-beta-cyclodextrin, 2,6-dimethyl-β-cyclodextrin as solubilizing agent, about 0,28 millimol per ml, read-out: maximal solubility of the Steroid in water): 9000 to 10000 µg/mL (≈ 24300 to 27000 µM)
solubility ([1]; water, 2,6-dimethyl-beta-cyclodextrin, inclusion complex with 2,6-dimethyl-β-cyclodextrin, read-out: solubility of the Steroid in water): ~10000 µg/mL (≈ 27000 µM)
solubility ([1]; water, no cyclodextrin, read-out: Solubility without cyclodextrin): 0.7 µg/mL (≈ 1.89 µM)
solubility ([1]; water, no cyclodextrin, read-out: original solubility in water): 0.5 µg/mL (≈ 1.35 µM)
increase of the intra ocular pressure (I.O.P.) [2]: did not increase I.O.P.
SMILES: CCC(=O)[C@@]1(C)[C@H](C)C[C@H]2[C@@H]3CCC4=CC(=O)C=C[C@]4(C)[C@H]3[C@@H](O)C[C@@]21C [Org 6216, 11β-hydroxy-16α,17α,21-trimethyl-▲¹ʼ⁴-pregnadiene-3,20-dione]
systemic effect [3]: did not expose any significant systemic effect
